Assay results taken from patent US10391201B2, “Gene therapy” (Ospedale San Raffaele S.r.l., priority 2014, dated 2019).

Legend:
BM-derived CD34+ cells = assay: γ-retroviral SINRV-GFP transduction of BM-derived CD34+ cells; format: cell-based, human; conditions: BM-derived HSPC; MOI of 10 (FIG. 24)
Experimental: A, B. The percentage of GFP+ cells was evaluated by FACS five days after transduction. Data represent the mean±SEM of four independent experiments.
Third generation lentivirus (LV) stocks were prepared, concentrated and titred as previously described (Dull, T. et al. (1998) J. Virol. 72: 8463-71; Follenzi, A. et al. (2000) Nat. Genetics 25: 217-22). […]. Bald vector, a normal LV produced by omitting the Env-encoding plasmid during vector production, was produced as a negative control. During vector production, the Env construct was substituted by pcDNA3.1 (Invitrogen Inc.). […]
(§1) Human CB and BM-derived haematopoietic stem/progenitor cells (HSPC) were cultured in serum-free StemSpan medium (StemCell Technologies) supplemented with 100 ng/mL recombinant human stem cell factor (rhSCF), 20 ng/mL recombinant human thrombopoietin (rhTPO), 100 ng/mL recombinant human Flt3 ligand (rhFlt3) and 20 ng/mL recombinant human IL6 (rhIL6) (all from Peprotech) 16 to 24 hours prior to transduction. […] After transduction, cells were washed and maintained serum-free StemSpan supplemented with cytokines as above until the reading of GFP-positive (GFP+) cells by FACS. […]

[1] = test system: monocyte-derived macrophages (MDM); assay: SINLV-GFP lentiviral transduction of monocyte-derived macrophages; format: cell-based, human; conditions: MOI 1, 10 μM CsA or 10 μg/mL rapamycin, FACS 5 days
Experimental: CD4^+ T cells were activated in RPMI, supplemented with 10% FBS, penicillin (100 IU/mL), streptomycin (100 μg/mL), 2% glutamine, phytohaemagglutanin (PHA) (2 μg/mL, Roche) and IL-2 (300 IU/mL, Novartis) for three days and maintained in RPMI supplemented with 10% FBS, penicillin (100 IU/mL), streptomycin (100 μg/mL), 2% glutamine and IL-2 (300 UI/mL). Monocyte-derived macrophages (MDM) were differentiated from isolated CD14^+ monocytes in DMEM supplemented with 10% FBS, penicillin (100 IU/mL), streptomycin (100 μg/mL), 2% glutamine and 5% human serum AB (Lonza) for seven days.
as §1
GFP expression in transduced cells was measured 5-7 days post-transduction. […]

CB-derived CD34+ cells = assay: γ-retroviral SINRV-GFP transduction of CB-derived CD34+ cells; format: cell-based, human; conditions: CB-derived HSPC; MOI of 10 (FIG. 24)
[2] = test system: bone marrow (BM)-derived CD34+ cells; format: cell-based, human
Experimental: (§2) Human CB and BM-derived haematopoietic stem/progenitor cells (HSPC) were cultured in serum-free StemSpan medium (StemCell Technologies) supplemented with 100 ng/mL recombinant human stem cell factor (rhSCF), 20 ng/mL recombinant human thrombopoietin (rhTPO), 100 ng/mL recombinant human Flt3 ligand (rhFlt3) and 20 ng/mL recombinant human IL6 (rhIL6) (all from Peprotech) 16 to 24 hours prior to transduction. HSPC were then transduced at a concentration of 1×10^6 cells per mL with vesicular stomatitis virus glycoprotein (VSV-G)-pseudotyped SINLV for 20 hours at the indicated multiplicity of infection (MOI) in the same medium. After transduction, cells were washed and maintained serum-free StemSpan supplemented with cytokines as above until the reading of GFP-positive (GFP+) cells by FACS. After FACS they were maintained in Roswell Park Memorial Institute medium (RPMI, Lonza) supplemented with 10% FBS, 25 ng/mL rhSCF, 5 ng/mL rhIL6, 25 ng/mL rhFlt3 and 5 ng/mL rhTPO for another seven days before analysis of vector copy numbers. MDM were transduced 7 days after differentiation. T lymphocytes were transduced at a concentration of 10^6 cells per mL, after 3 days of stimulation. All the cells were exposed to the vector for 16-20 hours.
(§3) They were added to the transduction medium at the indicated concentration and washed out with the vector 16-20 hours later.
(§4) GFP expression in transduced cells was measured 5-7 days post-transduction. Adherent MDM were detached by scraping in 5 mM PBS-EDTA, washed and resuspended in PBS containing 2% FBS. Cells grown in suspension were washed and resuspended in PBS containing 2% FBS. To exclude dead cells from the analysis, 10 ng/mL 7-aminoactinomycin D (7-AAD) was added.
(§5) DNA from cell cultures was extracted using a Maxwell 16 instrument (Promega) or Blood & Cell Culture DNA Micro Kit (Qiagen). To amplify the vector sequence, primers and probes complementary to the vector Rev responsive element sequence were used. Vector copy numbers and replication intermediates were normalised to genomic DNA content, which was assessed using the human TERT gene. Quantitative polymerase chain reaction (qPCR) primers and probe sequences and conditions were previously described (Santoni de Sio, F. R. et al (2006) Blood 107: 4257-65).

[3] = test system: cord blood (CB)-derived CD34+ cells; format: cell-based, human
Experimental: as §2, §3, §4, §5

IFNα = IFNα ELISA on supernatants of transduced CB-derived HSPC; format: cell-based, human; conditions: CB-derived HSPC 24 hours after exposure (FIG. 26)
Experimental: IFNα levels in supernatants from HSPC transduced in the presence of the agents. […] IFNα concentration was assessed using the VeriKine™ Human IFN Alpha ELISA Kit. HUVEC-10 cells were used as a positive control and the medium in which the cells were cultured as the negative control. Data represent the mean±SEM of three independent experiments.
To assess the secretion of human IFNα upon transduction of CB-derived HSPCs in the presence of the different compounds, supernatants from transduced cells were harvested 24 hours post-transduction and the IFNα concentration was assessed using the VeriKine™ Human IFN Alpha ELISA Kit (PBL interferon source, #41100) according to manufacturer's instructions.

Murine Lin− HSPC = assay: SINLV-GFP transduction of murine Lin- HSPC; format: cell-based; conditions: MOI 1, 10 μM CsA, 10 μg/ml Rapamycin or combination (FIG. 29A)
Experimental: The percentage of GFP+ cells was evaluated by FACS 5 days post-transduction. Data are the mean±SEM of three independent experiments for HSPC and three independent transductions for CD4+ T cells. p values are for One way ANOVA with Bonferroni's multiple comparison.

## CO[C@H]1C[C@@H]2CC[C@@H](C)[C@@](O)(O2)C(=O)C(=O)N2CCCC[C@H]2C(=O)O[C@H]([C@H](C)C[C@@H]2CC[C@@H](O)[C@H](OC)C2)CC(=O)[C@H](C)/C=C(\C)[C@@H](O)[C@@H](OC)C(=O)[C@H](C)C[C@H](C)/C=C/C=C/C=C/1C [rapamycin, Rapamycin]
BM-derived CD34+ cells
  percentage of GFP+ cells with γ-retroviral SINRV: neither compound was able to significantly increase
[1]
  decrease in GFP+ cells (transduction): 2.8 fold
CB-derived CD34+ cells
  percentage of GFP+ cells with γ-retroviral SINRV: neither compound was able to significantly increase
[2]
  increase in the percentage of GFP+ cells: 2 fold
[3]
  increase in the percentage of GFP+ cells: 2 fold
[3]; 10 μg/ml vs lower doses, MOI 1 (FIG. 28)
  transduction efficiency in titration of Rapa: improved transduction efficiency over lower doses
[3]; CB-derived CD34+ cells, clinical grade PGK-GFP SINLV, MOI of 10 (FIG. 25A)
  GFP+ cells with clinical grade SINLV: up to 60%
[3]; CD34+ cells, SINLVs with single CA point mutations MOI 1, vs DMSO (FIG. 14B)
  transduction efficiency of WT and CA mutant vectors: increased efficiency for all CA mutants
[3]; CD34− progenitors to CD34+CD133+CD90+ cells, FACS three days after transduction (FIG. 15C)
  transduction levels in all HSPC subpopulations: equally improved transduction levels
IFNα
  IFNα secretion: no detectable levels
Murine Lin− HSPC
  transduction (percentage of GFP+ cells): significantly improved transduction
